Source: publication PMC6858350, “A common mechanism allows selective targeting of GluN2B subunit-containing N-methyl-D-aspartate receptors” (Communications Biology, 2019)
Read-outs that look alike come from different tables or passages of the source.

Columns and labels:
GluN1-1a WT/GluN2B F176A [1] = target: T1, GluN1-1a WT/GluN2B F176A (Rattus norvegicus, UniProt P35439+Q00960, F176A)
GluN1-1a WT/GluN2B F114A [2] = target: T2, GluN1-1a WT/GluN2B F114A (Rattus norvegicus, UniProt P35439+Q00960, F114A)
GluN1-1a WT/GluN2B I111A [3] = target: T3, GluN1-1a WT/GluN2B I111A (Rattus norvegicus, UniProt P35439+Q00960, I111A)
GluN1-1a L135N/GluN2B WT [4] = target: T4, GluN1-1a L135N/GluN2B WT (Rattus norvegicus, UniProt P35439+Q00960, L135N)
GluN1-1a WT/GluN2B Q110A [5] = target: T5, GluN1-1a WT/GluN2B Q110A (Rattus norvegicus, UniProt P35439+Q00960, Q110A)
GluN1-1a F113S/GluN2B WT [6] = target: T6, GluN1-1a F113S/GluN2B WT (Rattus norvegicus, UniProt P35439+Q00960, F113S)
GluN1-1a WT/GluN2B F114A [7] = target: T2, GluN1-1a WT/GluN2B F114A; experiment: cell-based
GluN1-1a F113S/GluN2B WT [8] = target: T6, GluN1-1a F113S/GluN2B WT; experiment: cell-based
GluN1-1a WT/GluN2B I111A [9] = target: T3, GluN1-1a WT/GluN2B I111A; experiment: cell-based
GluN1-1a Y109S/GluN2B WT [10] = target: T7, GluN1-1a Y109S/GluN2B WT (Rattus norvegicus, UniProt P35439+Q00960, Y109S); experiment: cell-based
GluN1-1a S132A/GluN2B WT [11] = target: T8, GluN1-1a S132A/GluN2B WT (Rattus norvegicus, UniProt P35439+Q00960, S132A); experiment: cell-based
GluN1-1a WT/GluN2B E236A [12] = target: T9, GluN1-1a WT/GluN2B E236A (Rattus norvegicus, UniProt P35439+Q00960, E236A); experiment: cell-based
GluN1-1a WT/GluN2B F176Y [13] = target: T10, GluN1-1a WT/GluN2B F176Y (Rattus norvegicus, UniProt P35439+Q00960, F176Y)
GluN1-1a WT/GluN2B F176A [14] = target: T1, GluN1-1a WT/GluN2B F176A; experiment: cell-based
GluN1-1a/GluN2C NMDAR [15] = target: T11, GluN1-1a/GluN2C NMDAR (Rattus norvegicus, UniProt P35439+Q00961); details: from inhibition at 10 µM (GluN2C, GluN2D) versus IC50 at GluN2B
GluN1-1a WT/GluN2B E236A [16] = target: T9, GluN1-1a WT/GluN2B E236A
GluN1-1a WT/GluN2B F176Y [17] = target: T10, GluN1-1a WT/GluN2B F176Y; experiment: cell-based
GluN1-1a S132A/GluN2B WT [18] = target: T8, GluN1-1a S132A/GluN2B WT
GluN1-1a/GluN2A NMDAR = GluN1-1a/GluN2A NMDAR (Rattus norvegicus, UniProt P35439+Q00959); experiment: cell-based; details: read-out: ion current inhibition % ± SEM, GluN2A
[19] = target: GluN1-1a/GluN2B NMDAR (wildtype) (Rattus norvegicus, UniProt P35439+Q00960); assay type: cell-based; details: for p (slope of the dose-response curve) / A2 ± SE (maximum inhibition from dose-response curve): −70 mV; for A2 ± SE (maximum inhibition from dose-response curve): flexible A2; for IC50 shift compared to rac-1: wildtype GluN1-1a/GluN2B, IC50 increase relative to rac-1
GluN1-1a WT/GluN2B Q110A [20] = target: T5, GluN1-1a WT/GluN2B Q110A; experiment: cell-based
GluN1-1a L135N/GluN2B WT [21] = target: T4, GluN1-1a L135N/GluN2B WT; experiment: cell-based
GluN1-1a Y109S/GluN2B WT [22] = target: T7, GluN1-1a Y109S/GluN2B WT
GluN1-1a/GluN2C NMDAR [23] = target: T11, GluN1-1a/GluN2C NMDAR; experiment: cell-based; details: read-out: ion current inhibition % ± SEM, GluN2C
GluN1-1a/GluN2D NMDAR = GluN1-1a/GluN2D NMDAR (Rattus norvegicus, UniProt P35439+Q62645); experiment: cell-based; details: read-out: ion current inhibition % ± SEM, GluN2D
[24] = TEVC, holding potential −70 mV, 10 µM glycine and 10 µM (S)-glutamate, wildtype, read-out: IC50 ± SE

T9 sequence (Q00960 27-1482 E236A, other chains not shown): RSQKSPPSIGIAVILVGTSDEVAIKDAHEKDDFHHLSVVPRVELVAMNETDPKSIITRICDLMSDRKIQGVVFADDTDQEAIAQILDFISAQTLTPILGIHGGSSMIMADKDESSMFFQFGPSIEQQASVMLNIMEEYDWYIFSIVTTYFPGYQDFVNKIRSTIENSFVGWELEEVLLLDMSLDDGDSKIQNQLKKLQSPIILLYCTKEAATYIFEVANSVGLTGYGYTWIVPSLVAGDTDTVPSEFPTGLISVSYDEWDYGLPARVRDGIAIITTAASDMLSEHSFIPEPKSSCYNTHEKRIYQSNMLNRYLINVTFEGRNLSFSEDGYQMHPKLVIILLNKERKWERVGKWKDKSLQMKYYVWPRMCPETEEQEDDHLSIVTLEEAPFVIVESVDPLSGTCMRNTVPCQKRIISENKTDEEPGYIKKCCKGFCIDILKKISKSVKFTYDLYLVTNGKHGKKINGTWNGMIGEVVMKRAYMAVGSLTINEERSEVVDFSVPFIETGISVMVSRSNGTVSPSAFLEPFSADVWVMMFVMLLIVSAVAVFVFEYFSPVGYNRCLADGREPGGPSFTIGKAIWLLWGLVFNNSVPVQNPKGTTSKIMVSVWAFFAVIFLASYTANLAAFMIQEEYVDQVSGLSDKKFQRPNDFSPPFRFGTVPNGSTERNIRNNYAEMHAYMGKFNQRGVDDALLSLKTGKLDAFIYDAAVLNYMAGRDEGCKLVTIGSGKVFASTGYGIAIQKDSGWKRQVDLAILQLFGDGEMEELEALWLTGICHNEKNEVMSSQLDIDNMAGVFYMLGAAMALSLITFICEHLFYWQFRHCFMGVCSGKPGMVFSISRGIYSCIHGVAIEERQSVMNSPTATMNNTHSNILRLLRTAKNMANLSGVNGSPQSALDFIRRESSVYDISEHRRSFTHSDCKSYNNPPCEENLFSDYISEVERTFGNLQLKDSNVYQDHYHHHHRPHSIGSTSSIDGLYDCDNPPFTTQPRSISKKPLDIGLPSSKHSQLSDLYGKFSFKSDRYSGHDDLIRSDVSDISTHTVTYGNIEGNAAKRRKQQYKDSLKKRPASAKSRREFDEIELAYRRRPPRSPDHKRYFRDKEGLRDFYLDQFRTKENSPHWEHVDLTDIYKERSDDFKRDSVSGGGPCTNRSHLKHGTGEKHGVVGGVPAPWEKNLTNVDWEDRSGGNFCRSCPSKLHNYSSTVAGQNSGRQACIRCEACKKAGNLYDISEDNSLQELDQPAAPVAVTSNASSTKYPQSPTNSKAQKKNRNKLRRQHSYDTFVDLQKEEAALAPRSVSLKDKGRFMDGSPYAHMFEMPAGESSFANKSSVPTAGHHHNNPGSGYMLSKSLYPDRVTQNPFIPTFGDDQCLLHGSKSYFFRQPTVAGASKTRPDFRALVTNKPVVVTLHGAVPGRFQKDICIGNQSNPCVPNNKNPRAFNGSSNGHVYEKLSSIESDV
T10 sequence (Q00960 27-1482 F176Y, other chains not shown): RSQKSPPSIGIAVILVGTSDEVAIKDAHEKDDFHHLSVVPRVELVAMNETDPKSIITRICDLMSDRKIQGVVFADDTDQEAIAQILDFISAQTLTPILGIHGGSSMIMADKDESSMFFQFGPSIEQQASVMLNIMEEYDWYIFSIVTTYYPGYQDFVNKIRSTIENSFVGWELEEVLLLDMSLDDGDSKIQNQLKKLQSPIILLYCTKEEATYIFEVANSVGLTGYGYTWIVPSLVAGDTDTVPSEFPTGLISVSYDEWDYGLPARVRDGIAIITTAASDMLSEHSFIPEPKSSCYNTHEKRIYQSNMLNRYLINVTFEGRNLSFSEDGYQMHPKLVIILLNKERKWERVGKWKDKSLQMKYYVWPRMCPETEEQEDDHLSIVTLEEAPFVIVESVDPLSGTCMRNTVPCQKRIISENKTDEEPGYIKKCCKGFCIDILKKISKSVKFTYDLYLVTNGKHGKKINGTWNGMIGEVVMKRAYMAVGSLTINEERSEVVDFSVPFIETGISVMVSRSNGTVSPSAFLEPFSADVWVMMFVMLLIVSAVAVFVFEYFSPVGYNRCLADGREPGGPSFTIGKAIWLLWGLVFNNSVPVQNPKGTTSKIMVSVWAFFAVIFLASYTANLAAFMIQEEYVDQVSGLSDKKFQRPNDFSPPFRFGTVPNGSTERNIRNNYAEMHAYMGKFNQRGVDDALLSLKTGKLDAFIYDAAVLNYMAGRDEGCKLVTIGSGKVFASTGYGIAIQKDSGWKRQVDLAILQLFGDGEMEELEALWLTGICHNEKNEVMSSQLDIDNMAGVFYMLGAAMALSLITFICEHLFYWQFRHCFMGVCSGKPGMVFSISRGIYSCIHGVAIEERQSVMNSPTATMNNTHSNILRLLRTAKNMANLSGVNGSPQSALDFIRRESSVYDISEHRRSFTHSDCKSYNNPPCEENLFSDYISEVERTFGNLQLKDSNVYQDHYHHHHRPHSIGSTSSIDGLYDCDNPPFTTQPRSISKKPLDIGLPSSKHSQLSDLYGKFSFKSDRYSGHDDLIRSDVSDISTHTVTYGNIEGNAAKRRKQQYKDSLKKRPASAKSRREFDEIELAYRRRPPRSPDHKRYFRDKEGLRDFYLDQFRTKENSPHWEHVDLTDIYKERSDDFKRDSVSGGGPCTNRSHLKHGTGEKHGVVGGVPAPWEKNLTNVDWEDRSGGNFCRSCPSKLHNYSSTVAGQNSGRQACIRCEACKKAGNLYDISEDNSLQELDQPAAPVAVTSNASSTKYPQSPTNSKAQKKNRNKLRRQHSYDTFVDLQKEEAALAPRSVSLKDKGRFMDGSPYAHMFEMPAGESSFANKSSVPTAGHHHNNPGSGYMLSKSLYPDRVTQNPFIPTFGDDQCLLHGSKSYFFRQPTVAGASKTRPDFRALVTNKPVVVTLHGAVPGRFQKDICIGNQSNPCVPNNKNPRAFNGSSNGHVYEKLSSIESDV
T3 sequence (Q00960 27-1482 I111A, other chains not shown): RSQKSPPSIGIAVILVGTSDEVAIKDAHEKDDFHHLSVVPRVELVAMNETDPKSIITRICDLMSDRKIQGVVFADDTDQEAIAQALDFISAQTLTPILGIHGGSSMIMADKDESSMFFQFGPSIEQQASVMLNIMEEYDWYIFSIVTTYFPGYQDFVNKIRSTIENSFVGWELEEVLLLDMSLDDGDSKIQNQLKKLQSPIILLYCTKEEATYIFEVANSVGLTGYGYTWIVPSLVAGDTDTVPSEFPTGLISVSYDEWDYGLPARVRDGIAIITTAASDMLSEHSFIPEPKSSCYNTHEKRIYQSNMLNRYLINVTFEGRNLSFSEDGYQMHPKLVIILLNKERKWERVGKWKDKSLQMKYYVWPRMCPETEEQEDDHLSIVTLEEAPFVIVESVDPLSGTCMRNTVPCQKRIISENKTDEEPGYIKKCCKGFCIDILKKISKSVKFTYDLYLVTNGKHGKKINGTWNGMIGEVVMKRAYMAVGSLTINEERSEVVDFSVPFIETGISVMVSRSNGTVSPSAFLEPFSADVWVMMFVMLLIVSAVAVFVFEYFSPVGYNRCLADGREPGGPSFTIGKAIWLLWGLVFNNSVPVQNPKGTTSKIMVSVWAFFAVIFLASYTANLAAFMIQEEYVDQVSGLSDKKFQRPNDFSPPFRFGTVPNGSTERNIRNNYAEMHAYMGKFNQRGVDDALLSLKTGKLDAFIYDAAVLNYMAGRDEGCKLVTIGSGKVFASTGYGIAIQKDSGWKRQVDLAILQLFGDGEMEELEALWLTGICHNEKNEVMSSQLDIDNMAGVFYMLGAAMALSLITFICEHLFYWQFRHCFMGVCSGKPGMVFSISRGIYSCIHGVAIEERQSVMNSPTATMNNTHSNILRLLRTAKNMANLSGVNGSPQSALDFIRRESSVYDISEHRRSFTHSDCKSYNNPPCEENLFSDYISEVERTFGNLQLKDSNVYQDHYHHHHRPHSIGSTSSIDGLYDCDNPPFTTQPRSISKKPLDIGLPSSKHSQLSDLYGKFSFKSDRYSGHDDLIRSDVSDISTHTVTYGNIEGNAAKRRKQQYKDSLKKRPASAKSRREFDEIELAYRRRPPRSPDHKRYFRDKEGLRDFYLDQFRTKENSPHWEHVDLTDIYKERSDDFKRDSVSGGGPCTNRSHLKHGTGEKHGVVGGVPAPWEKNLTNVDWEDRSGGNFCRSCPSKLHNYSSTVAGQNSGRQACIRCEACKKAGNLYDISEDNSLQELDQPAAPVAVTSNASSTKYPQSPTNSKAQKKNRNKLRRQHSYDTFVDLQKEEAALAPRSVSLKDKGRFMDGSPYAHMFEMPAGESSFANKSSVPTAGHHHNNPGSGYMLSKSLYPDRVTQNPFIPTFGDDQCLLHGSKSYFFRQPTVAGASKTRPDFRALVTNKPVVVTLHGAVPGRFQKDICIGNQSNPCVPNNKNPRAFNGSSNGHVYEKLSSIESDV

In the case of C[C@@H]1[C@H](O)c2ccc(O)cc2CCN1CCCCc1ccccc1 [compound 2], the “p (slope)” value (GluN1-1a WT/GluN2B F176A [1]; GluN2B F176A) is reported as 0.94, the “A2, fixed-to-wildtype (*)” value (GluN1-1a WT/GluN2B F176A [1]; GluN2B F176A, maximum inhibition fixed to wildtype value) is reported as 97% and the IC50 shift factor (GluN1-1a WT/GluN2B F176A [1]; mutant IC50 / wildtype IC50, GluN2B F176A) is reported as 19.9. The “p (slope)” value (GluN1-1a WT/GluN2B F114A [2]; GluN2B F114A) was 1.03, the “A2, fixed-to-wildtype (*)” value (GluN1-1a WT/GluN2B F114A [2]; GluN2B F114A, maximum inhibition fixed to wildtype value) was 97% and the IC50 shift factor (GluN1-1a WT/GluN2B F114A [2]; mutant IC50 / wildtype IC50, GluN2B F114A) was 7.3. The “p (slope)” value (GluN1-1a WT/GluN2B I111A [3]; GluN2B I111A) was 0.86, the “A2 ± SE” value (GluN1-1a WT/GluN2B I111A [3]; GluN2B I111A, flexible A2) was 96 ± 4% and the IC50 shift factor (GluN1-1a WT/GluN2B I111A [3]; mutant IC50 / wildtype IC50, GluN2B I111A) was 4.2. For the same compound, the “p (slope)” value (GluN1-1a L135N/GluN2B WT [4]; GluN1-1a L135N) was 0.72, the “A2 ± SE” value (GluN1-1a L135N/GluN2B WT [4]; GluN1-1a L135N, flexible A2) was 100 ± 5% and the IC50 shift factor (GluN1-1a L135N/GluN2B WT [4]; mutant IC50 / wildtype IC50, GluN1-1a L135N) was 9.2. For the same compound, the “p (slope)” value (GluN1-1a WT/GluN2B Q110A [5]; GluN2B Q110A) was 1.79, the “A2 ± SE” value (GluN1-1a WT/GluN2B Q110A [5]; GluN2B Q110A, flexible A2) was 95 ± 1% and the IC50 shift factor (GluN1-1a WT/GluN2B Q110A [5]; mutant IC50 / wildtype IC50, GluN2B Q110A) was 1.4. The “p (slope)” value (GluN1-1a F113S/GluN2B WT [6]; GluN1-1a F113S) was 0.57, the “A2 ± SE” value (GluN1-1a F113S/GluN2B WT [6]; GluN1-1a F113S, flexible A2) was 100 ± 3% and the IC50 shift factor (GluN1-1a F113S/GluN2B WT [6]; mutant IC50 / wildtype IC50, GluN1-1a F113S) was 0.8. It also gave an IC50 (GluN1-1a WT/GluN2B F114A [7]) of 667 ± 90 nM, an IC50 (GluN1-1a F113S/GluN2B WT [8]) of 76 ± 17 nM and an IC50 (GluN1-1a WT/GluN2B I111A [9]) of 380 ± 82 nM. For the same compound, the IC50 (GluN1-1a Y109S/GluN2B WT [10]) was 140 ± 19 nM, the IC50 (GluN1-1a S132A/GluN2B WT [11]) was 387 ± 57 nM and the IC50 (GluN1-1a WT/GluN2B E236A [12]) was 108 ± 16 nM. The “p (slope)” value (GluN1-1a WT/GluN2B F176Y [13]; GluN2B F176Y) was 1.00, the “A2, fixed-to-wildtype (*)” value (GluN1-1a WT/GluN2B F176Y [13]; GluN2B F176Y, maximum inhibition fixed to wildtype value) was 97% and the IC50 shift factor (GluN1-1a WT/GluN2B F176Y [13]; mutant IC50 / wildtype IC50, GluN2B F176Y) was 0.9. For the same compound, the IC50 (GluN1-1a WT/GluN2B F176A [14]) was 1810 ± 127 nM, the “lower activity at GluN2C and GluN2D than at GluN2B subunit-containing NMDARs” value (GluN1-1a/GluN2C NMDAR [15]) was “at least 100 fold” and the “p (slope)” value (GluN1-1a WT/GluN2B E236A [16]; GluN2B E236A) was 1.09. The “A2 ± SE” value (GluN1-1a WT/GluN2B E236A [16]; GluN2B E236A, flexible A2) was 95 ± 3%, the IC50 shift factor (GluN1-1a WT/GluN2B E236A [16]; mutant IC50 / wildtype IC50, GluN2B E236A) was 1.2 and the IC50 (GluN1-1a WT/GluN2B F176Y [17]) was 84 ± 9 nM. For the same compound, the “p (slope)” value (GluN1-1a S132A/GluN2B WT [18]; GluN1-1a S132A) was 0.78, the “A2 ± SE” value (GluN1-1a S132A/GluN2B WT [18]; GluN1-1a S132A, flexible A2) was 100 ± 3% and the IC50 shift factor (GluN1-1a S132A/GluN2B WT [18]; mutant IC50 / wildtype IC50, GluN1-1a S132A) was 4.3. The inhibition at 10 µM (GluN1-1a/GluN2A NMDAR) was 15 ± 5%, the IC50 [19] was 91 ± 7 nM and the “p (slope of the dose-response curve)” value ([19]; TEVC, wildtype) was 1.08. The “A2 ± SE (maximum inhibition from dose-response curve)” value ([19]; TEVC, wildtype) was 97 ± 2%, the inhibition at 10 µM ([19]; read-out: ion current inhibition % ± SEM, GluN2B) was 95 ± 1% and the IC50 (GluN1-1a WT/GluN2B Q110A [20]) was 130 ± 6 nM. For the same compound, the IC50 (GluN1-1a L135N/GluN2B WT [21]) was 835 ± 184 nM, the “p (slope)” value (GluN1-1a Y109S/GluN2B WT [22]; GluN1-1a Y109S) was 0.86 and the “A2 ± SE” value (GluN1-1a Y109S/GluN2B WT [22]; GluN1-1a Y109S, flexible A2) was 96 ± 2%. The IC50 shift factor (GluN1-1a Y109S/GluN2B WT [22]; mutant IC50 / wildtype IC50, GluN1-1a Y109S) was 1.5, the inhibition at 10 µM (GluN1-1a/GluN2C NMDAR [23]) was 56 ± 2% and the inhibition at 10 µM (GluN1-1a/GluN2D NMDAR) was 55 ± 2%.
Oc1ccc2c(c1)CCN(CCCCc1ccccc1)CC2 [compound 3] was tested, and the IC50 [19, 24] was 3370 ± 926 nM, the “p (slope of the dose-response curve)” value ([19]; TEVC, wildtype) was 0.93 and the “A2 ± SE (maximum inhibition from dose-response curve)” value ([19]; TEVC, wildtype) was 92 ± 8%. The “IC50 shift compared to rac-1” value [19] was 36 fold.
With COc1ccc2c(c1)CCN(CCCCc1ccccc1)CC2O (stereo not shown) [compound 4] the IC50 [19, 24] was 1300 ± 483 nM, the “p (slope of the dose-response curve)” value ([19]; TEVC, wildtype) was 0.70 and the “A2 ± SE (maximum inhibition from dose-response curve)” value ([19]; TEVC, wildtype) was 100 ± 9%. The “IC50 shift compared to rac-1” value [19] was 14 fold.
For c1ccc(CCCCN2CCc3ccccc3CC2)cc1 [compound 5], the “Inhibition (% ± SEM) of ion flux” value ([19]; compound concentration 30 µM, wildtype) was “almost inactive” and the inhibition at 30 µM ([19]; compound concentration 30 µM, wildtype, read-out: Inhibition (% ± SEM) of ion flux) was 9 ± 2%.
